From patent US9580423B2, “Bicyclic heterocycles as FGFR4 inhibitors” (Incyte Corporation, priority 2015, dated 2017)
Like-named read-outs stand apart in the source and are kept apart here.

What was measured:
[1] = biological target: FGFR4 (Homo sapiens (Human), UniProt P22455); assay: FGFR Enzymatic Assay (FRET peptide phosphorylation), FGFR4; conditions: for FGFR1/FGFR4 IC50 ratio / FGFR2/FGFR4 IC50 ratio / FGFR3/FGFR4 IC50 ratio: IC50 ratio showing FGFR4 selectivity
Description: (§1) The enzymes were purchased from Millipore or Invitrogen.
(§2) GraphPad prism3 was used to analyze the data. The IC50 values were derived by fitting the data to the equation for a sigmoidal dose-response with a variable slope. Y=Bottom+(Top-Bottom)/(1+10^((LogIC50−X)*HillSlope)) where X is the logarithm of concentration and Y is the response.

[2] = biological target: FGFR1 (Homo sapiens (Human), UniProt P11362); assay: FGFR Enzymatic Assay (FRET peptide phosphorylation), FGFR1; conditions: read-out: FGFR1 IC50; pre-incubated for 4 hours
Description: as §1, §2

[3] = biological target: FGFR2 (Homo sapiens (Human), UniProt P21802); assay: FGFR Enzymatic Assay (FRET peptide phosphorylation), FGFR2; conditions: read-out: FGFR2 IC50; pre-incubated for 4 hours
Description: as §1, §2

[4] = biological target: FGFR3 (Homo sapiens (Human), UniProt P22607); assay: FGFR Enzymatic Assay (FRET peptide phosphorylation), FGFR3; conditions: read-out: FGFR3 IC50; pre-incubated for 4 hours
Description: as §1, §2

[5] = read-out: FGFR4 IC50, pre-incubated for 4 hours

FGFR2, sequence (P21802 22-821): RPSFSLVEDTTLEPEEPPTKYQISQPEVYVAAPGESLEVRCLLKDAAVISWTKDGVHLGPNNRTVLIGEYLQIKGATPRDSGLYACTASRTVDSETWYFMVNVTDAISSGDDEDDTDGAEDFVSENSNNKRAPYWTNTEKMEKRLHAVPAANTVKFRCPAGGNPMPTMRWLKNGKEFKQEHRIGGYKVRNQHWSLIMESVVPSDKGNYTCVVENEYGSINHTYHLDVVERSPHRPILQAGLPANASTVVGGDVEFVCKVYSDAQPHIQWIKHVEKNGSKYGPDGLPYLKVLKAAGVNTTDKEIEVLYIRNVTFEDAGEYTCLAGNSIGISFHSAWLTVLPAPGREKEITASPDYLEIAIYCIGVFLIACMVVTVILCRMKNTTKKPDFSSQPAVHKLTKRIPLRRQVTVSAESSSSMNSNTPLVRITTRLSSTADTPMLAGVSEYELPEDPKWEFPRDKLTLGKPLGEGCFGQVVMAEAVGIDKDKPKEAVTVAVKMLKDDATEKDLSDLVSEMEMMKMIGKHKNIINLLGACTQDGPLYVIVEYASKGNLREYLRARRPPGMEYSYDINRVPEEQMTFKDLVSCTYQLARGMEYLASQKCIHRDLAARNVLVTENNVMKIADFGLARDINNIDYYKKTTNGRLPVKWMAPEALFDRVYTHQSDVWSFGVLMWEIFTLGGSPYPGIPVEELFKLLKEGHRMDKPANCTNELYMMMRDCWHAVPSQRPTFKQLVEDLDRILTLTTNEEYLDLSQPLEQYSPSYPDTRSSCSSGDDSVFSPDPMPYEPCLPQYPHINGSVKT
FGFR1, sequence (P11362 22-822): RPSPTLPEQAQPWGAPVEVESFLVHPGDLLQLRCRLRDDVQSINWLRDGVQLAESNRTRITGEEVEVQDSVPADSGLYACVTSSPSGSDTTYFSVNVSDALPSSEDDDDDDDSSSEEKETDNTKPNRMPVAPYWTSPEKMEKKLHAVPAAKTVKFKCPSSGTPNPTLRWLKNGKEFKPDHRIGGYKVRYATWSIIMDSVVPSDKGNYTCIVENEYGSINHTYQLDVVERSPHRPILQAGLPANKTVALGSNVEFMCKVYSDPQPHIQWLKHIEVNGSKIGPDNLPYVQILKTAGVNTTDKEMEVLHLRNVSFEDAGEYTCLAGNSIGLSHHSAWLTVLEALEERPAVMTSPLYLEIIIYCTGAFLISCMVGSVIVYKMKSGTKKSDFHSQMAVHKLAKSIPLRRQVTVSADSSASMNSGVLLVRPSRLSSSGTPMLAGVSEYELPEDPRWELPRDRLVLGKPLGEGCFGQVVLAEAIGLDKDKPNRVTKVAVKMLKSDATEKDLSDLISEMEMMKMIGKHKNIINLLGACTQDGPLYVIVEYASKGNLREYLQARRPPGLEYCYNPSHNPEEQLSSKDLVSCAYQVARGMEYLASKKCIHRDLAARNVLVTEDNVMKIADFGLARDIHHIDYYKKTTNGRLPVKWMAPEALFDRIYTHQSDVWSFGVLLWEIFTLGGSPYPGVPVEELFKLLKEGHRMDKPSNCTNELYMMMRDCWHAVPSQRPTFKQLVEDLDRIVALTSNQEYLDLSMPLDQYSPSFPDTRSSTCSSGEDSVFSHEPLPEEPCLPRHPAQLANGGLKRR
FGFR4, sequence (P22455 22-802): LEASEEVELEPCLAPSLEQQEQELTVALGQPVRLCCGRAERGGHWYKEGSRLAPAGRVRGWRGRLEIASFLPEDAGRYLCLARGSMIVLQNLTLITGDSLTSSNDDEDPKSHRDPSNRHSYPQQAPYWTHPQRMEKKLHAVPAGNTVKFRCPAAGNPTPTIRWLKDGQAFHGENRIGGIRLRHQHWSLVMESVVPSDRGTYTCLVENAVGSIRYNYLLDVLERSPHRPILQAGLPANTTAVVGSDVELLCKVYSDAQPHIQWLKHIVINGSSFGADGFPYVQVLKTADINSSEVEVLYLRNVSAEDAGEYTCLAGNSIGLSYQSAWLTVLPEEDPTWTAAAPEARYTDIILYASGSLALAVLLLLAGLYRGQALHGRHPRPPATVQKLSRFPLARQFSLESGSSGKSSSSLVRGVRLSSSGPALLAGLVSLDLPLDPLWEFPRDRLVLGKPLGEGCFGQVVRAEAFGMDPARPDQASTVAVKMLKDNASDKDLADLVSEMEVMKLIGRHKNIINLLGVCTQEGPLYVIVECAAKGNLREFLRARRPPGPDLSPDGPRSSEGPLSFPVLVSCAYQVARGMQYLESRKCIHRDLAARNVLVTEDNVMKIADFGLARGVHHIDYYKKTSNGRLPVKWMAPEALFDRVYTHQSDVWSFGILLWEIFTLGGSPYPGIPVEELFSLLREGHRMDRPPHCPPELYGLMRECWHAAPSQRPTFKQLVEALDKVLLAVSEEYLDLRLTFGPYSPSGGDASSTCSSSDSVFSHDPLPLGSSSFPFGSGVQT
FGFR3, sequence (P22607 23-806): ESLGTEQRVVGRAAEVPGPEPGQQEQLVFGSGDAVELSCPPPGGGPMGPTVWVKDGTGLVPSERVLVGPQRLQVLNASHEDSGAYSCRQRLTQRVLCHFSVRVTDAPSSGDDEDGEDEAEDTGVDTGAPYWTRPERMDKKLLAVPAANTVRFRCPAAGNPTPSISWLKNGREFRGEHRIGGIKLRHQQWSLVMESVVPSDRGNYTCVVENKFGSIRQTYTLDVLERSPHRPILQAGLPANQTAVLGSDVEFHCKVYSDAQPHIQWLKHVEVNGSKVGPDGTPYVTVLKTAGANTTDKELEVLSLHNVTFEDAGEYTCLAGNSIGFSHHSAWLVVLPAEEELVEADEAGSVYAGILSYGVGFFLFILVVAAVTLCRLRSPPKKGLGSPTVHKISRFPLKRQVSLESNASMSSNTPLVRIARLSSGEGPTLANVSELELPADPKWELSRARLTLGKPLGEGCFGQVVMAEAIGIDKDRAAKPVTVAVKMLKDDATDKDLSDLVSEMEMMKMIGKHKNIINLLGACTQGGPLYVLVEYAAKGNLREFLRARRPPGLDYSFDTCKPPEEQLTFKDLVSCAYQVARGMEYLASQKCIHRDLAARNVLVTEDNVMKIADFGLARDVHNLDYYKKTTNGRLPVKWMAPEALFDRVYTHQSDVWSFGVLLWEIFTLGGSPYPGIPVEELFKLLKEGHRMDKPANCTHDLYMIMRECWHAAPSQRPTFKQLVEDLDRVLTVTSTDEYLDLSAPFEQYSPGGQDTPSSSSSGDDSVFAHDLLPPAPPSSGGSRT

SMILES | FGFR1/FGFR4 IC50 ratio ([1]; pre-incubated for 4 hours) | FGFR2/FGFR4 IC50 ratio ([1]; pre-incubated for 4 hours) | FGFR3/FGFR4 IC50 ratio ([1]; pre-incubated for 4 hours) | IC50 [1, 5] [nM] | IC50 [2] [nM] | IC50 [3] [nM] | IC50 [4] [nM] | IC50 [1] [nM]
C=CC(=O)Nc1cn[nH]c1-c1cc2c(cn1)CN(c1c(F)c(OC)cc(OC)c1F)C(=O)C21CC1 [Example 14, N-(5-(2′-(2,6-difluoro-3,5-dimethoxyphenyl)-3′-oxo-2′,3′-dihydro-1′H-spiro[cyclopropane-1,4′-[2,7]naphthyridine]-6′-yl)-1H-pyrazol-4-yl)acrylamide] | >100 | >100 | >100 | < 10 | > 200 | > 200 | > 200 | –
C=CC(=O)Nc1cnn(CCOCC)c1-c1cc2c(cn1)CN(c1c(F)c(OC)cc(OC)c1F)C(=O)C21CC1 [Example 16, N-(5-(2′-(2,6-difluoro-3,5-dimethoxyphenyl)-3′-oxo-2′,3′-dihydro-1′H-spiro[cyclopropane-1,4′-[2,7]naphthyridine]-6′-yl)-1-(2-ethoxyethyl)-1H-pyrazol-4-yl)acrylamide] | >100 | >100 | >100 | < 10 | > 200 | > 200 | > 200 | –
C=CC(=O)Nc1cnn(C2CCOCC2)c1-c1cc2c(cn1)CN(c1c(F)c(OC)cc(OC)c1F)C(=O)C21CC1 [Example 18, N-(5-(2′-(2,6-difluoro-3,5-dimethoxyphenyl)-3′,-oxo-2′,3′-dihydro-1′H-spiro[cyclopropane-1,4′-[2,7]naphthyridine]-6′-yl)-1-(tetrahydro-2H-pyran-4-yl)-1H-pyrazol-4-yl)acrylamide] | >100 | >50 | >100 | – | > 200 | > 200 | > 200 | 10 to 30
C=CC(=O)Nc1cnn(CCN2CCOCC2)c1-c1cc2c(cn1)CN(c1c(F)c(OC)cc(OC)c1F)C(=O)C21CC1 [Example 19, N-(5-(2′-(2,6-difluoro-3,5-dimethoxyphenyl)-3′-oxo-2′,3′-dihydro-1′H-spiro[cyclopropane-1,4′-[2,7]naphthyridine]-6′-yl)-1-(2-morpholinoethyl)-1H-pyrazol-4-yl)acrylamide] | >100 | >100 | >100 | – | > 200 | > 200 | > 200 | 10 to 30
C=CC(=O)Nc1cnn(Cc2cccnc2)c1-c1cc2c(cn1)CN(c1c(F)c(OC)cc(OC)c1F)C(=O)C21CC1 [Example 22, N-(5-(2′-(2,6-difluoro-3,5-dimethoxyphenyl)-3′-oxo-2′,3′-dihydro-1′H-spiro[cyclopropane-1,4′-[2,7]naphthyridine]-6′-yl)-1-(pyridin-3-ylmethyl)-1H-pyrazol-4-yl)acrylamide] | >100 | >100 | >100 | < 10 | > 200 | > 200 | > 200 | –
C=CC(=O)Nc1cnn(Cc2ncn(C)n2)c1-c1cc2c(cn1)CN(c1c(F)c(OC)cc(OC)c1F)C(=O)C21CC1 [Example 23, N-(5-(2′-(2,6-difluoro-3,5-dimethoxyphenyl)-3′-oxo-2′,3′-dihydro-1′H-spiro[cyclopropane-1,4′-[2,7]naphthyridine]-6′-yl)-1-((1-methyl-1H-1,2,4-triazol-3-yl)methyl)-1H-pyrazol-4-yl)acrylamide] | >100 | >100 | >100 | < 10 | > 200 | > 200 | > 200 | –
C=CC(=O)Nc1cnn(CC2CCOCC2)c1-c1cc2c(cn1)CN(c1c(F)c(OC)cc(OC)c1F)C(=O)C21CC1 [Example 24, N-(5-(2′-(2,6-difluoro-3,5-dimethoxyphenyl)-3′-oxo,2′,3′-dihydro-1′H-spiro[cyclopropane-1,4′-[2,7]naphthyridine]-6′-yl)-1-((tetrahydro-2H-pyran-4-yl)methyl)-1H-pyrazol-4-yl)acrylamide] | >100 | >100 | >100 | – | > 200 | > 200 | > 200 | 10 to 30
C=CC(=O)Nc1cnn(C[C@@H]2CCOC2)c1-c1cc2c(cn1)CN(c1c(F)c(OC)cc(OC)c1F)C(=O)C21CC1 [Example 28, (S)-N-(5-(2′-(2,6-difluoro-3,5-dimethoxyphenyl)-3′-oxo-2′,3′-dihydro-1′H-spiro[cyclopropane-1,4′-[2,7]naphthyridine]-6′-yl)-1-((tetrahydrofuran-3-yl)methyl)-1H-pyrazol-4-yl)acrylamide] | >100 | >100 | >100 | – | > 200 | > 200 | > 200 | 10 to 30
C=CC(=O)Nc1cnn(C[C@H]2CCOC2)c1-c1cc2c(cn1)CN(c1c(F)c(OC)cc(OC)c1F)C(=O)C21CC1 [Example 29, (R)-N-(5-(2′-(2,6-difluoro-3,5-dimethoxyphenyl)-3′-oxo-2′,3′-dihydro-1′H-spiro[cyclopropane-1,4′-[2,7]naphthyridine]-6′-yl)-1-((tetrahydrofuran-3-yl)methyl)-1H-pyrazol-4-yl)acrylamide] | >100 | >100 | >100 | < 10 | > 200 | > 200 | > 200 | –
C=CC(=O)Nc1cnn(C[C@H]2CCCO2)c1-c1cc2c(cn1)CN(c1c(F)c(OC)cc(OC)c1F)C(=O)C21CC1 [Example 30, (R)-N-(5-(2′-(2,6-difluoro-3,5-dimethoxyphenyl)-3′-oxo-2′,3′-dihydro-1′H-spiro[cyclopropane-1,4′-[2,7]naphthyridine]-6′-yl)-1-((tetrahydrofuran-2-yl)methyl)-1H-pyrazol-4-yl)acrylamide] | >100 | >100 | >100 | < 10 | > 200 | > 200 | > 200 | –

Second part, the compound after the results:

FGFR1/FGFR4 IC50 ratio ([1]; pre-incubated for 4 hours) | FGFR2/FGFR4 IC50 ratio ([1]; pre-incubated for 4 hours) | FGFR3/FGFR4 IC50 ratio ([1]; pre-incubated for 4 hours) | IC50 [1, 5] [nM] | IC50 [2] [nM] | IC50 [3] [nM] | IC50 [4] [nM] | IC50 [1] [nM] | SMILES
>100 | >100 | >100 | < 10 | > 200 | > 200 | > 200 | – | C=CC(=O)Nc1cnn(CCOC)c1-c1cc2c(cn1)CN(c1c(F)c(OC)cc(OC)c1F)C(=O)C21CC1 [Example 15, N-(5-(2′-(2,6-difluoro-3,5-dimethoxyphenyl)-3′-oxo-2′,3′-dihydro-1′H-spiro[cyclopropane-1,4′-[2,7]naphthyridine]-6′-yl)-1-(2-methoxyethyl)-1H-pyrazol-4-yl)acrylamide]
>100 | >100 | >100 | < 10 | > 200 | > 200 | > 200 | – | C=CC(=O)Nc1cnn(CCO)c1-c1cc2c(cn1)CN(c1c(F)c(OC)cc(OC)c1F)C(=O)C21CC1 [Example 17, N-(5-(2′-(2,6-difluoro-3,5-dimethoxyphenyl)-3′-oxo2′,3′-dihydro-1′H-spiro[cyclopropane-1,4′-[2,7]naphthyridine]-6′-yl)-1-(2-hydroxyethyl)-1H-pyrazol-4-yl)acrylamide]
>100 | >50 | >100 | < 10 | > 200 | > 200 | > 200 | – | C=CC(=O)Nc1cnn(Cc2ccncc2)c1-c1cc2c(cn1)CN(c1c(F)c(OC)cc(OC)c1F)C(=O)C21CC1 [Example 21, N-(5-(2′-(2,6-difluoro-3,5-dimethoxyphenyl)-3′-oxo-2′,3′-dihydro-1′H-spiro[cyclopropane-1,4′-[2,7]naphthyridine]-6′-yl)-1-(pyridin-4-ylmethyl)-1H-pyrazol-4-yl)acrylamide]
>100 | >100 | >100 | < 10 | > 200 | > 200 | > 200 | – | C=CC(=O)Nc1cnn(Cc2ccon2)c1-c1cc2c(cn1)CN(c1c(F)c(OC)cc(OC)c1F)C(=O)C21CC1 [Example 25, N-(5-(2′-(2,6-difluoro-3,5-dimethoxyphenyl)-3′-oxo-2′,3′-dihydro-1′H-spiro[cyclopropane-1,4′-[2,7]naphthyridine]-6′-yl)-1-(isoxazol-3-ylmethyl)-1H-pyrazol-4-yl)acrylamide]
>100 | >50 | >100 | – | > 200 | > 200 | > 200 | 10 to 30 | C=CC(=O)Nc1cnn(Cc2ccnn2C)c1-c1cc2c(cn1)CN(c1c(F)c(OC)cc(OC)c1F)C(=O)C21CC1 [Example 26, N-(5-(2′-(2,6-difluoro-3,5-dimethoxyphenyl)-3′-oxo-2′,3′-dihydro-1′H-spiro[cyclopropane-1,4′-[2,7]naphthyridine]-6′-yl)-1-((1-methyl-1H-pyrazol-5-yl)methyl)-1H-pyrazol-4-yl)acrylamide]
>100 | >100 | >100 | < 10 | > 200 | > 200 | > 200 | – | C=CC(=O)Nc1cnn(Cc2cnn(C)c2)c1-c1cc2c(cn1)CN(c1c(F)c(OC)cc(OC)c1F)C(=O)C21CC1 [Example 27, N-(5-(2′-(2,6-difluoro-3,5-dimethoxyphenyl)-3′-oxo-2′,3′-dihydro-1′H-spiro[cyclopropane-1,4′-[2,7]naphthyridine]-6′-yl)-1-((1-methyl-1H-pyrazol-4-yl)methyl)-1H-pyrazol-4-yl)acrylamide]
